Assay results taken from patent publication US20200325156A1, “HETEROARYL AMIDE COMPOUNDS, PREPARATION METHOD THEREFOR, PHARMACEUTICAL COMPOSITIONS THEREOF, AND APPLICATIONS THEREOF” (Rui Jin Hospital Affiliated to Shanghai Jiao Tong …, priority 2017, published 2020).

How the values were obtained:
Format in all cases: cell-based
[1] = test system: Human lung cancer cells A549; assay: MTS cell growth inhibition, A549; details: for inhibition at 10 µM: compound concentration 10 μM, 48 h, MTS, read-out: Inhibition rate against A549 at 10 μM (%)
Method: (§1) 1) Medium: DMEM (Dulbecco's modified eagle medium) or RPMI1640 (containing 10% fetal bovine serum, 100 μg/mL ampicillin, 100 μg/mL streptomycin).
(§2) 2) Reagent: MTS reaction solution (containing 2 mg/mL of MTS (3-(4,5-dimethylthiazol-2-yl)-5-(3-carboxymethoxyphenyl)-2-(4-sulfophenyl)-2H-tetrazolium, inner salt); 100 μg/mL PES ([…])).
(§3) Human promyelocytic leukemia cells HL-60 (2×10^4 cells/well) cultured in vitro were incubated into a 96-well culture plate, the volume of cell-culture medium was 90 μL, and then 10 μL of the compound at each gradient concentration was added (the highest concentration was 10 μM, which was diluted stepwise by ⅓, and 8 concentration points were set in total; the system contained 0.1% DMSO (dimethyl sulfoxide)). The cell plate with uniformly mixed compound was cultured in a cell culture incubator (37° C.; 5% CO2) for 48 h, then 20 μμL of MTS reaction solution was added, uniformly mixed and incubated in the cell culture incubator (37° C.; 5% CO2) for 1-4 hr; OD values at 490 nm were measured by a microplate reader (VARIOSKAN FLASH, Thermo). Three parallels were set in each group of experiments, with 0.1% (a final concentration) DMSO as a negative control, and a medium without cells and compounds as a blank control. The cell growth inhibition rate was calculated by the following formula:
(§4) Cell growth inhibition rate%=1−(ODexperimental group−ODblank group)/(ODnegative group−ODblank group)×100%
(§5) 4) IC50 calculation: The semi-inhibitory concentration of the compound acting on cell was calculated using GradPad Prism 5 software according to the measured cell growth inhibition rate.
(§6) Human lung cancer cells A549, human gastric cancer cells BGC-823, human liver cancer cells HepG-2 and human breast cancer cells MCF-7, human osteosarcoma cells U2OS, human prostate cancer cells LNCAP cultured in vitro were added in a 96-well culture plate at 1,000-10,000 cells/well, incubated until adherence, and then the compound was added. As to other procedures, please refer to the method (1) above.

[2] = test system: human gastric cancer cells BGC-823; assay: MTS cell growth inhibition, BGC-823; details: compound concentration 10 μM, 48 h, read-out: Inhibition rate against BGC-823 at 10 μM (%)
Method: as §1, §2, §3, §4, §5, §6

[3] = test system: human liver cancer cells HepG-2; assay: MTS cell growth inhibition, HepG-2; details: HepG2, compound concentration 10 μM, 48 h, read-out: Inhibition rate against HepG-2 at 10 μM (%)
Method: as §1, §2, §3, §4, §5, §6

[4] = test system: human breast cancer cells MCF-7; assay: MTS cell growth inhibition, MCF-7; details: MCF7, compound concentration 10 μM, 48 h, read-out: Inhibition rate against MCF-7 at 10 μM (%)
Method: as §1, §2, §3, §4, §5, §6

[5] = test system: Human promyelocytic leukemia cells HL-60; assay: MTS cell growth inhibition, HL-60; details: for inhibition at 10 µM / IC50: Homo sapiens, HL-60, 48 h, MTS; for inhibition at 10 µM: compound concentration 10 μM, read-out: Inhibition rate against HL-60 at 10 μM (%); for IC50: growth inhibition; for growth inhibitory activity on HL-60 (in words): summary of Tables 3 and 4
Method: as §1, §2, §3, §4, §5

[6] = test system: human osteosarcoma cells U2OS; assay: MTS cell growth inhibition, U2OS; details: for inhibition at 10 µM / IC50: Homo sapiens, U2OS, 48 h, MTS; for inhibition at 10 µM: compound concentration 10 μM, read-out: Inhibition rate against U2OS at 10 μM (%); for IC50: growth inhibition; for growth inhibitory activity on U2OS (in words): summary of Tables 3 and 4
Method: as §1, §2, §3, §4, §5, §6

[7] = test system: human prostate cancer cells LNCAP; assay: MTS cell growth inhibition, LNCAP; details: for inhibition at 10 µM / IC50: Homo sapiens, LNCaP, 48 h, MTS; for inhibition at 10 µM: compound concentration 10 μM, read-out: Inhibition rate against LNCAP at 10 μM (%); for IC50: growth inhibition; for growth inhibitory activity on LNCAP (in words): summary of Tables 3 and 4
Method: as §1, §2, §3, §4, §5, §6

[8] = test system: lung cancer cell line NCI-1975; assay: Growth inhibitory activity, NCI-1975; details: growth inhibition; read-out: Lung cancer cells IC50 NCI-1975
[9] = test system: lung cancer cell line HCC827; assay: Growth inhibitory activity, HCC827; details: Homo sapiens, growth inhibition, read-out: Lung cancer cells IC50 HCC827
[10] = test system: human embryo lung cell line WI-38; assay: Growth inhibitory activity, WI-38; details: growth inhibition, normal cells
[11] = test system: human embryo lung cell line HFL-1; assay: Growth inhibitory activity, HFL-1; details: HFL1, growth inhibition, normal cells
[12] = test system: leukemia cell line SHI-1; assay: Growth inhibitory activity, SHI-1; details: growth inhibition; read-out: Leukemia cells IC50 SHI-1
[13] = test system: leukemia cell line THP-1; assay: Growth inhibitory activity, THP-1; details: Homo sapiens, growth inhibition, read-out: Leukemia cells IC50 THP-1
[14] = test system: leukemia cell line NB-4; assay: Growth inhibitory activity, NB4; details: growth inhibition; read-out: Leukemia cells IC50 NB4
[15] = test system: tumor cells (NCI-1975, HCC827, A549, SHI-1, THP-1, NB-4); assay: Growth inhibition of tumor cells (summary over cell lines); details: range over lung cancer and leukemia cell lines
Method: as §1, §2
as §3, with “Three parallels were set in each group of experiments, with 0.1% (a final concentration) DMSO as a negative control, and a medium without cells and compounds as a blank control.” left out, “formula: […]” for “formula:”
4) IC50 calculation: The semi-inhibitory concentration of the compound acting on cell was calculated using GradPad Prism 5 software according to the measured cell growth inhibition rate. […]

[16] = test system: normal human embryo lung cells (WI-38 and HFL-1); assay: Growth of normal human embryo lung cells (summary)

Molecule `CC(C)Oc1ccc(NC(=O)c2cc3scnc3[nH]2)cc1` [Compound I-2] has an inhibition at 10 µM [1] of 81.9%, an IC50 ([1]; growth inhibition) of 30 nM and an inhibition at 10 µM [2] of 61.7%. The inhibition at 10 µM [3] was 60.1%, the inhibition at 10 µM [4] was 23.1% and the inhibition at 10 µM [5] was less than 0%. For the same molecule, the inhibition at 10 µM [6] was 19.4%, the inhibition at 10 µM [7] was 22.2% and the IC50 [8] was 57 nM. The IC50 [9] was 8 nM, the IC50 [10] was 5620 nM and the IC50 [11] was 8590 nM. The IC50 [12] was 221 nM, the IC50 [13] was 2460 nM and the IC50 [14] was 280 nM. The IC50 [15] was 8 to 280 nM and the IC50 [16] was greater than 5000 nM.

For `O=C(NCc1ccccc1-c1ccco1)c1cc2scnc2[nH]1` [Compound I-26], the inhibition at 10 µM [1] was less than 0%, the inhibition at 10 µM [2] was 23.4% and the inhibition at 10 µM [3] was 29.7%. The inhibition at 10 µM [4] was 3.1%, the inhibition at 10 µM [5] was 64.8% and the IC50 [5] was 3210 nM. The inhibition at 10 µM [6] was 44.5%, the IC50 [6] was 6170 nM and the inhibition at 10 µM [7] was 44.9%. It also gave an IC50 [7] of 163 nM.

Molecule `O=C(NCc1ccccc1-c1ccoc1)c1cc2scnc2[nH]1` [Compound I-27] has an inhibition at 10 µM [1] of 67.9%, an inhibition at 10 µM [2] of 55.1% and an inhibition at 10 µM [3] of 43.2%. For the same molecule, the inhibition at 10 µM [4] was 1.7%, the inhibition at 10 µM [5] was 68.8% and the IC50 [5] was 0.012 nM. For the same molecule, the “growth inhibitory activity on HL-60 (in words)” value [5] was “relatively good growth inhibitory activity”, the inhibition at 10 µM [6] was 44.9% and the IC50 [6] was 6 nM. For the same molecule, the “growth inhibitory activity on U2OS (in words)” value [6] was “relatively good growth inhibitory activity”, the IC50 [7] was 32 nM and the “growth inhibitory activity on LNCAP (in words)” value [7] was “relatively good growth inhibitory activity”.

`O=C(NCc1ccccc1-c1cc2ccccc2o1)c1cc2scnc2[nH]1` [Compound I-28] gave an inhibition at 10 µM [1] of 50.3%, an inhibition at 10 µM [2] of 60.3% and an inhibition at 10 µM [3] of 44.4%. For the same molecule, the inhibition at 10 µM [4] was 21%, the inhibition at 10 µM [5] was 74.8% and the IC50 [5] was 5 nM. For the same molecule, the “growth inhibitory activity on HL-60 (in words)” value [5] was “relatively good growth inhibitory activity”, the inhibition at 10 µM [6] was 48.7% and the IC50 [6] was 928 nM. For the same molecule, the “growth inhibitory activity on U2OS (in words)” value [6] was “relatively good growth inhibitory activity”, the inhibition at 10 µM [7] was 71% and the IC50 [7] was 130 nM. The “growth inhibitory activity on LNCAP (in words)” value [7] was “relatively good growth inhibitory activity”.

`CSc1ccc(OCc2cccc(NC(=O)c3cc4scnc4[nH]3)c2)cc1` [Compound I-31] was tested, and the inhibition at 10 µM [1] was less than 0%, the inhibition at 10 µM [2] was 20.4% and the inhibition at 10 µM [3] was 18.5%. The inhibition at 10 µM [4] was 13.9%, the inhibition at 10 µM [5] was 71.8% and the IC50 [5] was 491 nM. For the same molecule, the inhibition at 10 µM [6] was 54.9%, the IC50 [6] was 8920 nM and the inhibition at 10 µM [7] was 59.3%. For the same molecule, the IC50 [7] was 2600 nM.

`CS(=O)(=O)c1ccc(OCc2cccc(NC(=O)c3cc4scnc4[nH]3)c2)cc1` [Compound I-32] showed an inhibition at 10 µM [1] of less than 0%, an inhibition at 10 µM [2] of 9.2% and an inhibition at 10 µM [3] of less than 0%. The inhibition at 10 µM [4] was less than 0%, the inhibition at 10 µM [5] was 70.3% and the IC50 [5] was 1850 nM. The inhibition at 10 µM [6] was 45.2%, the IC50 [6] was 5470 nM and the inhibition at 10 µM [7] was 41.5%. It also gave an IC50 [7] of 7030 nM.

`Cc1cn(-c2cc(NC(=O)c3cc4scnc4[nH]3)cc(C(F)(F)F)c2)cn1` [Compound I-35] gave an inhibition at 10 µM [1] of 59.5%, an inhibition at 10 µM [2] of 44.4% and an inhibition at 10 µM [3] of 50.5%. For the same molecule, the inhibition at 10 µM [4] was less than 0%, the inhibition at 10 µM [5] was 80.4% and the IC50 [5] was 7030 nM. The inhibition at 10 µM [6] was 42.2%, the IC50 [6] was 7850 nM and the inhibition at 10 µM [7] was 61.9%. It also gave an IC50 [7] of 4740 nM.
